Measurements as given in patent US11981658B2, “Substituted aminopyridine compounds as EGFR inhibitors” (YUHAN CORPORATION, priority 2021, dated 2024).
Read-outs that look alike come from different tables or passages of the source.

Legend:
EGFR L858R/C797S = EGFR L858R/C797S (Homo sapiens, UniProt P00533, C797S/L858R); assay: Biochemical EGFR kinase inhibition assay (Lance Ultra TR-FRET), double mutant L858R/C797S
Outline: (§1)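 Enzyme reactions lasted 1 hour at room temperature with test compounds between 0.003 and 10 μM, followed by 10 mM EDTA quench.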

EGFR Del19/C797S = EGFR Del19/C797S (Homo sapiens, UniProt P00533, C797S/DEL746-750); assay: Biochemical EGFR kinase inhibition assay (Lance Ultra TR-FRET), double mutant del19/C797S
Outline: as §1

EGFR L858R/T790M/C797S = EGFR L858R/T790M/C797S (Homo sapiens, UniProt P00533, C797S/L858R/T790M); assay: Biochemical EGFR kinase inhibition assay (Lance Ultra TR-FRET), triple mutant L858R/T790M/C797S
Outline: as §1

EGFR wildtype (WT) = EGFR wildtype (WT) (Homo sapiens, UniProt P00533); assay: Biochemical EGFR kinase inhibition assay (Lance Ultra TR-FRET), wildtype
Outline: as §1

EGFR Del19/T790M/C797S = EGFR Del19/T790M/C797S (Homo sapiens, UniProt P00533, C797S/DEL746-750/T790M); assay: Biochemical EGFR kinase inhibition assay (Lance Ultra TR-FRET), triple mutant del19/T790M/C797S
Outline: as §1

[1] = ATP at Km, read-out: IC50 L858R/C797S (nM), Km ATP
[2] = IC50 L858R/C797S (nM), 100 μM ATP
[3] = ATP at Km, read-out: IC50 Del19/C797S (nM), Km ATP
[4] = IC50 Del19/C797S (nM), 100 μM ATP
[5] = ATP at Km, read-out: IC50 L858R/T790M/C797S (nM), Km ATP
[6] = IC50 L858R/T790M/C797S (nM), 100 μM ATP
[7] = ATP at Km, read-out: IC50 WT (nM), Km ATP
[8] = ATP at Km, read-out: IC50 Del19/T790M/C797S (nM), Km ATP
[9] = IC50 Del19/T790M/C797S (nM), 100 μM ATP
[10] = Km ATP, read-out: IC50 L858R/C797S (nM), Km ATP
[11] = Km ATP, read-out: IC50 Del19/C797S (nM), Km ATP
[12] = Km ATP, read-out: IC50 L858R/T790M/C797S (nM), Km ATP
[13] = Km ATP, read-out: IC50 WT (nM), Km ATP
[14] = Km ATP, read-out: IC50 Del19/T790M/C797S (nM), Km ATP

Chain of EGFR L858R/T790M/C797S (P00533 25-1210 T790M/C797S/L858R): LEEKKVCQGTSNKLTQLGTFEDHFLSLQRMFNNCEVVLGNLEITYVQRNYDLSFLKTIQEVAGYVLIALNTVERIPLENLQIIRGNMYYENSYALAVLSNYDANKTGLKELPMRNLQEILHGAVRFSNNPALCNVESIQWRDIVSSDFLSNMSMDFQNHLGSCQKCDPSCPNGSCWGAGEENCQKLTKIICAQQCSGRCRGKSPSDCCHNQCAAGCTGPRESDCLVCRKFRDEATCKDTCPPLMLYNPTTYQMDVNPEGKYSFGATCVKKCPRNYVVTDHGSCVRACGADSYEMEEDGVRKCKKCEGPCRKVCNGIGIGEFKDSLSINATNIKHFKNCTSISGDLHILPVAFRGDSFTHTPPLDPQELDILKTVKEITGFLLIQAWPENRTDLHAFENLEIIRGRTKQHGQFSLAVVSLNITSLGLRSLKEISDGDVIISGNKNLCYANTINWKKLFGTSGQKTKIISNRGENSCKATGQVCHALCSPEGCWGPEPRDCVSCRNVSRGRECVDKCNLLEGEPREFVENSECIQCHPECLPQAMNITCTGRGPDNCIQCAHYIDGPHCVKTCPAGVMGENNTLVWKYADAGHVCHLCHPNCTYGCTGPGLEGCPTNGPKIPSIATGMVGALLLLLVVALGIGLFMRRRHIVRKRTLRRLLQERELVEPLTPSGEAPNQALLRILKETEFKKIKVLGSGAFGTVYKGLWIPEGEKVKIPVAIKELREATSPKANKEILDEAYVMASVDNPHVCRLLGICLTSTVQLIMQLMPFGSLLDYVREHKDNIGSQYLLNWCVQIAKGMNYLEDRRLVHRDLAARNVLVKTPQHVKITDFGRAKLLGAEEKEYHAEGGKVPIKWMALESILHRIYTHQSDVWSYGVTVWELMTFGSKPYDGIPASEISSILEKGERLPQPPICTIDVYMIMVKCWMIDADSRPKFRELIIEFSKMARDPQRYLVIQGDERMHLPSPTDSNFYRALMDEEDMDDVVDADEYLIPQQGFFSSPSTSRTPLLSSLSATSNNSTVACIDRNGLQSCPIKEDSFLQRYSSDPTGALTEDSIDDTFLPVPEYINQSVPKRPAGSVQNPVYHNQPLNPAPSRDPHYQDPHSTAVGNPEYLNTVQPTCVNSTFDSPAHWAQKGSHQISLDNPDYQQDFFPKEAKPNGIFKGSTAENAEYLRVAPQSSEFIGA
Chain of EGFR L858R/C797S (P00533 25-1210 C797S/L858R): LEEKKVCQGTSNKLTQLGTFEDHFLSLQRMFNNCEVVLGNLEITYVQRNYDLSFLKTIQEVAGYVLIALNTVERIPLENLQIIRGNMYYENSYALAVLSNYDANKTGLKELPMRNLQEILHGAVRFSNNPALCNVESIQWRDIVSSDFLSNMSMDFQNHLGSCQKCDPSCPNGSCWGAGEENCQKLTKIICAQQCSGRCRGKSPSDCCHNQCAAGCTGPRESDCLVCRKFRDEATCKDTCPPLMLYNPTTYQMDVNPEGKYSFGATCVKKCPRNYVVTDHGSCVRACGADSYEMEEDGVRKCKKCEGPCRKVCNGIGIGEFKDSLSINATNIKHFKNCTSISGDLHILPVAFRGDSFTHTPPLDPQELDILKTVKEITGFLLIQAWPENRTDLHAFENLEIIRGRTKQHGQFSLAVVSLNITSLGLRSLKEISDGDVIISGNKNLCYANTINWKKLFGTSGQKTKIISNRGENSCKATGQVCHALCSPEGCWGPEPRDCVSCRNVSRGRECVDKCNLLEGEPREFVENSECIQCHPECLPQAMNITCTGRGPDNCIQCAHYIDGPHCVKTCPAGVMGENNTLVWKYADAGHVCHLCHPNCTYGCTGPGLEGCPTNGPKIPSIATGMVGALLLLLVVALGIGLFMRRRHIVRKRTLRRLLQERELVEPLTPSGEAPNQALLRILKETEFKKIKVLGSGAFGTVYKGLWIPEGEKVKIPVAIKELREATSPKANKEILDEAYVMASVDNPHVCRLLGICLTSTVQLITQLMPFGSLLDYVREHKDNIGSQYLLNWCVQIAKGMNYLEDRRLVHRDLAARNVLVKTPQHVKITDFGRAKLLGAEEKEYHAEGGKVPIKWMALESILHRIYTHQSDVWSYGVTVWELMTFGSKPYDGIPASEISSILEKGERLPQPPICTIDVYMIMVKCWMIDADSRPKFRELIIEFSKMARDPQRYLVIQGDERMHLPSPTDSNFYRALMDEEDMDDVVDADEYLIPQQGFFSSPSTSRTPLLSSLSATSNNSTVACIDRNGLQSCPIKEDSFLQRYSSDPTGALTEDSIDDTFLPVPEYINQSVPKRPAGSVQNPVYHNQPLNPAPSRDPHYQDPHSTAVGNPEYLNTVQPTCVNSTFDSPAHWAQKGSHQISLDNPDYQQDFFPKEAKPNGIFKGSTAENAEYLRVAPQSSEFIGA
Chain of EGFR Del19/C797S (P00533 with tags, fused parts or gaps DEL746-750/C797S): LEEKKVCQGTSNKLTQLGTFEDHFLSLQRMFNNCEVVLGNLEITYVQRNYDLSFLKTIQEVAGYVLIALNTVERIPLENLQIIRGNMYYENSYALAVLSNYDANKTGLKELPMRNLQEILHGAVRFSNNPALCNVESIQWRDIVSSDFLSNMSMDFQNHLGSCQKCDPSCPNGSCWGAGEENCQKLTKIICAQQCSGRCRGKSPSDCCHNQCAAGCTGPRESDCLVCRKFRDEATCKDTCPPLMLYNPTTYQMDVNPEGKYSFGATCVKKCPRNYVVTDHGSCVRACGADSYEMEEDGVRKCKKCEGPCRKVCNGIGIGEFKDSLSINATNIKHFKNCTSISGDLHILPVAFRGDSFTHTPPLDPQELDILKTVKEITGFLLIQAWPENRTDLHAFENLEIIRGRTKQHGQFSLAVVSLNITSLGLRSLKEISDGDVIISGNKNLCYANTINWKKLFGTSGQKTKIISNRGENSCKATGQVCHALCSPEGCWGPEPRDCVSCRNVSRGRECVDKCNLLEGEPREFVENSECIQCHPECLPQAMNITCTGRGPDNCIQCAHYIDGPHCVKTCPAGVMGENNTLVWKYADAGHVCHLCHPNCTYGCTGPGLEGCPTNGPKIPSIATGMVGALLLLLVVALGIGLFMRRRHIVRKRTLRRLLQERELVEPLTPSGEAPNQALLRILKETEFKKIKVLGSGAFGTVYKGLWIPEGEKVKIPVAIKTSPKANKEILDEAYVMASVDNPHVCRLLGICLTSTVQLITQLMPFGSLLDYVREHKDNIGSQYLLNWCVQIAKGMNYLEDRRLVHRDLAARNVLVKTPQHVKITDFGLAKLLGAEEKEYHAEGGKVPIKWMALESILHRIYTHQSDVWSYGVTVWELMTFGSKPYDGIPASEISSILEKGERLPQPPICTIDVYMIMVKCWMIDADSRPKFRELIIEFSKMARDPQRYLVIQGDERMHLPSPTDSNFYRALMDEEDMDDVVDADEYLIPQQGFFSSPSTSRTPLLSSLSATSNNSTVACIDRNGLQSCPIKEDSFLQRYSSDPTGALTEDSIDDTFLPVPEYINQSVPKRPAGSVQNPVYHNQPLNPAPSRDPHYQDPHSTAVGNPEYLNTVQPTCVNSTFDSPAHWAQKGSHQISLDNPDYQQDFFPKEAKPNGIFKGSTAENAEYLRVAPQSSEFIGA
Chain of EGFR wildtype (WT) (P00533 25-1210): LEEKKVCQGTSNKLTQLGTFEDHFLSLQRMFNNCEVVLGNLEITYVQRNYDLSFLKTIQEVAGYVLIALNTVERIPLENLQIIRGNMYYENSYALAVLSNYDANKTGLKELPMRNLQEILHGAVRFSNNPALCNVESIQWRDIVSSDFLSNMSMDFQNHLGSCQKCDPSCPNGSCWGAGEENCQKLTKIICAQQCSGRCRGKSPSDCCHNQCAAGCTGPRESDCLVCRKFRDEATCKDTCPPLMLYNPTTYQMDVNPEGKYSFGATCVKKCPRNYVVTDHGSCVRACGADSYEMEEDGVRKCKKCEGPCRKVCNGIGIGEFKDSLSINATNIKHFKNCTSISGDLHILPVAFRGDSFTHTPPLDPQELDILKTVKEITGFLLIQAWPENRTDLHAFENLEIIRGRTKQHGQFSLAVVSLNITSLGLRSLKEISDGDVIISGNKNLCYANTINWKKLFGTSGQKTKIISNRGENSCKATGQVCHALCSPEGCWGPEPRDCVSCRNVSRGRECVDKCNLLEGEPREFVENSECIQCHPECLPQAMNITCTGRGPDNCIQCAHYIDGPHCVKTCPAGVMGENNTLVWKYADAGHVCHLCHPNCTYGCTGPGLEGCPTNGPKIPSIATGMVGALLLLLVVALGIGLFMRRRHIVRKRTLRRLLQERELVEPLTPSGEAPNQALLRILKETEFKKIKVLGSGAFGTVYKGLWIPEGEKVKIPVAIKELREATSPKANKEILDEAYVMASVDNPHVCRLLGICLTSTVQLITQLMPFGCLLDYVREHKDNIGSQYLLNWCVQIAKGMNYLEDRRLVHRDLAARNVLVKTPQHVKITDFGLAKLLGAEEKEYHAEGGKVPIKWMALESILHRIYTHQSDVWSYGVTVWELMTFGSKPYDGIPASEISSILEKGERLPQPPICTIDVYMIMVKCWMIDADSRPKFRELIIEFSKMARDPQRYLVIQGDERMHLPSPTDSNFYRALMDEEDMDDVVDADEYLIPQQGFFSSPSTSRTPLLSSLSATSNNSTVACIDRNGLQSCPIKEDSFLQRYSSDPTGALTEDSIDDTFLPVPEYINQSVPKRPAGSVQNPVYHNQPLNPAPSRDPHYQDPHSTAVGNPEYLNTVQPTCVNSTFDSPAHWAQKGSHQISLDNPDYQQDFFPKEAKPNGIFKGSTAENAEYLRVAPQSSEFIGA

| IC50 (EGFR L858R/C797S; [1]) | IC50 (EGFR L858R/C797S; [2]) | IC50 (EGFR Del19/C797S; [3]) | IC50 (EGFR Del19/C797S; [4]) | IC50 (EGFR L858R/T790M/C797S; [5]) | IC50 (EGFR L858R/T790M/C797S; [6]) | IC50 (EGFR wildtype (WT); [7]) | IC50 (EGFR wildtype (WT); IC50 WT (nM), 100 μM ATP) | IC50 (EGFR Del19/T790M/C797S; [8]) | IC50 (EGFR Del19/T790M/C797S; [9]) | IC50 (EGFR L858R/C797S; [10]) | IC50 (EGFR Del19/C797S; [11]) | IC50 (EGFR L858R/T790M/C797S; [12]) | IC50 (EGFR wildtype (WT); [13]) | IC50 (EGFR Del19/T790M/C797S; [14]) | IC50 (EGFR L858R/C797S; Km ATP, read-out: IC50 L858R/C797S (nM) Km ATP) | IC50 (EGFR Del19/C797S; Km ATP, read-out: IC50 Del19/C797S (nM) Km ATP) | IC50 (EGFR L858R/T790M/C797S; Km ATP, read-out: IC50 L858R/T790M/C797S (nM) Km ATP) | IC50 (EGFR wildtype (WT); Km ATP, read-out: IC50 WT (nM) Km ATP) | IC50 (EGFR Del19/T790M/C797S; Km ATP, read-out: IC50 Del19/T790M/C797S (nM) Km ATP) | SMILES |
| --- | --- | --- | --- | --- | --- | --- | --- | --- | --- | --- | --- | --- | --- | --- | --- | --- | --- | --- | --- | --- |
| 5.3 nM | 145 nM | 10.3 nM | 19.2 nM | 0.6 nM | 2.1 nM | 17.6 nM | > 10000 nM | 1.9 nM | 1.9 nM |  |  |  |  |  |  |  |  |  |  | CC1(O)CCC(Nc2cc(Nc3ccnc(-c4cnn(S(=O)(=O)C5CC5)c4)n3)ncc2C#Cc2cnn(C3CC3(F)F)c2)CC1 (centres unmarked) [Example 326, (1s,4s)-4-((2-((2-(1-(Cyclopropylsulfonyl)-1H-pyrazol-4-yl)pyrimidin-4-yl)amino)-5-((1-(2,2-difluorocyclopropyl)-1H-pyrazol-4-yl)ethynyl)pyridin-4-yl)amino)-1-methylcyclohexan-1-ol] |
|  | 9580 nM |  | 17.1 nM |  | 0.5 nM |  | > 10000 nM |  | 0.4 nM | 42.8 nM | 10.8 nM | 0.2 nM | 149 nM | 0.3 nM |  |  |  |  |  | O=S(=O)(C1CC1)n1cc(-c2nccc(Nc3cc(N4CCC(F)(CO)CC4)c(C#Cc4cnn(C(F)(F)F)c4)cn3)n2)cn1 [Example 338, (1-(2-((2-(1-(Cyclopropylsulfonyl)-1H-pyrazol-4-yl)pyrimidin-4-yl)amino)-5-((1-(trifluoromethyl)-1H-pyrazol-4-yl)ethynyl)pyridin-4-yl)-4-fluoropiperidin-4-yl)methanol] |
| 1 nM | 3.1 nM | 0.6 nM | 0.5 nM | 0.5 nM | 1.5 nM | 6 nM | 418 nM | 0.8 nM | 1.3 nM |  |  |  |  |  |  |  |  |  |  | CC1(CO)CCN(c2cc(Nc3ccnc(-c4cnn(S(=O)(=O)C5CC5)c4)n3)ncc2C#Cc2cnn(C3CCOC3)c2)CC1 (centres unmarked) [Example 244, (1-(2-((2-(1-(Cyclopropylsulfonyl)-1H-pyrazol-4-yl)pyrimidin-4-yl)amino)-5-((1-(tetrahydrofuran-3-yl)-1H-pyrazol-4-yl)ethynyl)pyridin-4-yl)-4-methylpiperidin-4-yl)methanol] |
|  | 2200 nM |  | 64.2 nM |  | 6.5 nM |  | > 10000 nM |  | 3.2 nM |  |  |  |  |  | 100 nM | 48.7 nM | 1.5 nM | 2520 nM | 2.3 nM | C[C@]1(O)CC[C@@H](Nc2cc(Nc3ccnc(-c4cnn(S(=O)(=O)C5CC5)c4)n3)ncc2C#Cc2cnn(C(F)(F)F)c2)CC1 [Example 105, (1s,4s)-4-((2-((2-(1-(Cyclopropylsulfonyl)-1H-pyrazol-4-yl)pyrimidin-4-yl)amino)-5-((1-(trifluoromethyl)-1H-pyrazol-4-yl)ethynyl)pyridin-4-yl)amino)-1-methylcyclohexan-1-ol] |
|  | 104 nM |  | 8.4 nM |  | 3.9 nM |  | > 10000 nM |  | 2.6 nM | 3.9 nM | 7.9 nM |  | 62.7 nM |  |  |  |  |  |  | CC1(C#Cc2cnc(Nc3ccnc(-c4cnn(S(=O)(=O)C5CC5)c4)n3)cc2N[C@H]2CC[C@@H](CO)CC2)CC1 [Example 402, ((1s,4s)-4-((2-((2-(1-(Cyclopropylsulfonyl)-1H-pyrazol-4-yl)pyrimidin-4-yl)amino)-5-((1-methylcyclopropyl)ethynyl)pyridin-4-yl)amino)cyclohexyl)methanol] |
|  | > 10000 nM |  | 325 nM |  | 10.9 nM |  | > 10000 nM |  | 8 nM |  | 197 nM | 3.3 nM |  | 6 nM |  |  |  |  |  | CC(C)(O)[C@H]1CC[C@@H](Nc2cc(Nc3ccnc(-c4cnn(S(=O)(=O)C5CC5)c4)n3)ncc2C#Cc2cnn(C(F)(F)F)c2)CC1 [Example 337, 2-((1s,4s)-4-((2-((2-(1-(Cyclopropylsulfonyl)-1H-pyrazol-4-yl)pyrimidin-4-yl)amino)-5-((1-(trifluoromethyl)-1H-pyrazol-4-yl)ethynyl)pyridin-4-yl)amino)cyclohexyl)propan-2-ol] |
